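The concentration for 50% growth inhibition is given as GI50. TGI: concentration producing complete growth inhibition.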
How the values were obtained:
Experiment in all cases: growth of human tumour cells (NCI), 384-well format
SNB-19 CNS = test system: SNB-19 CNS
NCI-H226 lung = test system: NCI-H226 lung
SN12C renal = test system: SN12C renal
IGROV1 ovarian = test system: IGROV1 ovarian
OVCAR-8 ovarian = test system: OVCAR-8 ovarian
KM12 colon = test system: KM12 colon
OVCAR-5 ovarian = test system: OVCAR-5 ovarian
CCRF-CEM leukemia = test system: CCRF-CEM leukemia
UACC-62 melanoma = test system: UACC-62 melanoma
HCT-15 colon = test system: HCT-15 colon
SK-OV-3 ovarian = test system: SK-OV-3 ovarian
NCI-H23 lung = test system: NCI-H23 lung
BT-549 breast = test system: BT-549 breast
SF-295 CNS = test system: SF-295 CNS
MCF7 breast = test system: MCF7 breast
HOP-62 NSCLC = test system: HOP-62 NSCLC
M14 melanoma = test system: M14 melanoma
UACC-257 melanoma = test system: UACC-257 melanoma
NCI-H522 lung = test system: NCI-H522 lung
SK-MEL-28 melanoma = test system: SK-MEL-28 melanoma
786-0 renal = test system: 786-0 renal
TK-10 renal = test system: TK-10 renal
CAKI-1 renal = test system: CAKI-1 renal
PC-3 prostate = test system: PC-3 prostate
OVCAR-3 ovarian = test system: OVCAR-3 ovarian
SK-MEL-2 melanoma = test system: SK-MEL-2 melanoma
EKVX NSCLC = test system: EKVX NSCLC
ACHN renal = test system: ACHN renal
HT29 colon = test system: HT29 colon
SNB-75 CNS = test system: SNB-75 CNS
MDA-MB-435 melanoma = test system: MDA-MB-435 melanoma
DU-145 prostate = test system: DU-145 prostate
U251 glioblastoma = test system: U251 glioblastoma
A498 renal = test system: A498 renal
NCI/ADR-RES ovarian = test system: NCI/ADR-RES ovarian
MALME-3M melanoma = test system: MALME-3M melanoma
NCI-H322M lung = test system: NCI-H322M lung
OVCAR-4 ovarian = test system: OVCAR-4 ovarian
A549 NSCLC = test system: A549 NSCLC
K-562 leukemia = test system: K-562 leukemia
MDA-MB-231 breast = test system: MDA-MB-231 breast
SW-620 colon = test system: SW-620 colon
RPMI-8226 leukemia = test system: RPMI-8226 leukemia
T-47D breast = test system: T-47D breast
HOP-92 NSCLC = test system: HOP-92 NSCLC
SF-268 CNS = test system: SF-268 CNS
MDA-MB-468 breast = test system: MDA-MB-468 breast
HCT-116 colon = test system: HCT-116 colon
HL-60(TB) leukemia = test system: HL-60(TB) leukemia
HS 578T breast = test system: HS 578T breast
SF-539 CNS = test system: SF-539 CNS
UO-31 renal = test system: UO-31 renal

SMILES: CC[C@]1(O)C[C@H]2CN(CCc3c([nH]c4ccccc34)[C@@](C(=O)OC)(c3cc4c(cc3OC)N(C)[C@H]3[C@@](O)(C(=O)OC)[C@H](OC(C)=O)[C@]5(CC)C=CCN6CC[C@]43[C@@H]65)C2)C1
- GI50 (SNB-19 CNS): < 21.6 nM
- TGI (SNB-19 CNS): 2300 nM
- GI50 (NCI-H226 lung): < 26.3 nM
- TGI (NCI-H226 lung): 13000 nM
- GI50 (SN12C renal): < 25 nM
- TGI (SN12C renal): 14700 nM
- GI50 (IGROV1 ovarian): < 39 nM
- TGI (IGROV1 ovarian): 4400 nM
- GI50 (OVCAR-8 ovarian): < 16.4 nM
- TGI (OVCAR-8 ovarian): < 28.4 nM
- GI50 (KM12 colon): 33.1 nM
- TGI (KM12 colon): 13800 nM
- GI50 (OVCAR-5 ovarian): < 21.1 nM
- TGI (OVCAR-5 ovarian): 16800 nM
- GI50 (CCRF-CEM leukemia): < 13.6 nM
- TGI (CCRF-CEM leukemia): < 18.2 nM
- GI50 (UACC-62 melanoma): < 17.1 nM
- GI50 (HCT-15 colon): 52 nM
- TGI (HCT-15 colon): 10400 nM
- GI50 (SK-OV-3 ovarian): < 20.6 nM
- TGI (SK-OV-3 ovarian): 904 nM
- GI50 (NCI-H23 lung): 25.8 nM
- TGI (NCI-H23 lung): 79.6 nM
- GI50 (BT-549 breast): < 16.2 nM
- TGI (BT-549 breast): 42.6 nM
- GI50 (SF-295 CNS): < 14.8 nM
- TGI (SF-295 CNS): < 22.6 nM
- GI50 (MCF7 breast): < 19.1 nM
- TGI (MCF7 breast): 3170 nM
- GI50 (HOP-62 NSCLC): < 17.5 nM
- TGI (HOP-62 NSCLC): 1250 nM
- GI50 (M14 melanoma): 22.7 nM
- TGI (M14 melanoma): 13200 nM
- GI50 (UACC-257 melanoma): 412 nM
- TGI (UACC-257 melanoma): 10600 nM
- GI50 (NCI-H522 lung): < 14.1 nM
- TGI (NCI-H522 lung): < 19.6 nM
- GI50 (SK-MEL-28 melanoma): < 39 nM
- TGI (SK-MEL-28 melanoma): 14600 nM
- GI50 ([…]-0 renal): < 19.1 nM
- TGI (786-0 renal): 4130 nM
- GI50 (TK-10 renal): < 26.9 nM
- TGI (TK-10 renal): 14600 nM
- GI50 (CAKI-1 renal): < 22.6 nM
- TGI (CAKI-1 renal): 3880 nM
- GI50 (PC-3 prostate): < 19.5 nM
- TGI (PC-3 prostate): 11800 nM
- GI50 (OVCAR-3 ovarian): < 15.1 nM
- TGI (OVCAR-3 ovarian): < 26.5 nM
- GI50 (SK-MEL-2 melanoma): < 16.2 nM
- TGI (SK-MEL-2 melanoma): < 25.4 nM
- GI50 (EKVX NSCLC): 30.4 nM
- TGI (EKVX NSCLC): 11900 nM
- TGI (ACHN renal): 6080 nM
- GI50 (HT29 colon): 31.5 nM
- TGI (HT29 colon): 10700 nM
- GI50 (SNB-75 CNS): < 20.6 nM
- GI50 (MDA-MB-435 melanoma): < 13.7 nM
- TGI (MDA-MB-435 melanoma): < 21.1 nM
- GI50 (DU-145 prostate): < 18.7 nM
- GI50 (U251 glioblastoma): < 17.7 nM
- GI50 (A498 renal): < 19.9 nM
- GI50 (NCI/ADR-RES ovarian): 454 nM
- TGI (NCI/ADR-RES ovarian): 1020 nM
- GI50 (MALME-3M melanoma): < 23.8 nM
- TGI (MALME-3M melanoma): 16400 nM
- GI50 (NCI-H322M lung): < 24.5 nM
- TGI (NCI-H322M lung): 20300 nM
- GI50 (OVCAR-4 ovarian): 357 nM
- TGI (OVCAR-4 ovarian): 14700 nM
- GI50 (A549 NSCLC): < 21.2 nM
- TGI (A549 NSCLC): 14100 nM
- TGI (K-562 leukemia): < 18.8 nM
- GI50 (MDA-MB-231 breast): < 20.5 nM
- TGI (MDA-MB-231 breast): 8400 nM
- GI50 (SW-620 colon): < 20.2 nM
- TGI (SW-620 colon): 16300 nM
- GI50 (RPMI-8226 leukemia): < 11.6 nM
- TGI (RPMI-8226 leukemia): < 16.8 nM
- GI50 (T-47D breast): 544 nM
- TGI (T-47D breast): 19900 nM
- GI50 (HOP-92 NSCLC): 66.4 nM
- TGI (HOP-92 NSCLC): 8390 nM
- GI50 (SF-268 CNS): < 20.3 nM
- TGI (SF-268 CNS): 4860 nM
- GI50 (MDA-MB-468 breast): < 14.9 nM
- TGI (MDA-MB-468 breast): < 20.7 nM
- GI50 (HCT-116 colon): < 17.8 nM
- TGI (HCT-116 colon): 595 nM
- TGI (HL-60(TB) leukemia): < 11.1 nM
- GI50 (HS 578T breast): < 13.6 nM
- TGI (HS 578T breast): < 20.8 nM
- GI50 (SF-539 CNS): < 14.3 nM
- TGI (SF-539 CNS): < 21.5 nM
- GI50 (UO-31 renal): 157 nM
- TGI (UO-31 renal): 7780 nM
